# Reference: US9079866B2, “Flap modulators” (JANSSEN PHARMACEUTICA NV, priority 2013, dated 2015)
# Structures can show the parent of a compound that is named as a salt. Where two headings read alike, the source gives them in different places.
# Experiments:
# [1] = biological target: human FLAP (Homo sapiens (Human), UniProt P20292); assay: FLAP binding assay (HTRF format)
# Outline: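 Samples were run in duplicate on each of two assay plates, the results were averaged, and the signal was expressed as an HTRF ratio.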
# [2] = test system: leukotriene pathway in human whole blood (LTB4 levels); assay: Human whole blood assay (A23187-stimulated LTB4); format: cell-based; conditions: Homo sapiens, read-out: LTB4 IC50 1:1
# Outline: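 Heparinised human whole blood diluted 1:1 in RPMI, pre-incubated 15 min at 37° Celsius with compound, then stimulated with A23187 (7 μg/mL) for 30 min at 37° Celsius. Plasma LTB4 measured by immunoassay kit; IC50 from 4-parameter fit; single replicate per plate, at least one healthy donor.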
# [3] = human whole blood diluted 1:1, A23187-stimulated
# [4] = human FLAP wild type, HTRF format, average of two plates, duplicates
# [5] = human whole blood diluted 1:1 in RPMI, A23187-stimulated LTB4
# human FLAP, sequence (P20292 whole entry): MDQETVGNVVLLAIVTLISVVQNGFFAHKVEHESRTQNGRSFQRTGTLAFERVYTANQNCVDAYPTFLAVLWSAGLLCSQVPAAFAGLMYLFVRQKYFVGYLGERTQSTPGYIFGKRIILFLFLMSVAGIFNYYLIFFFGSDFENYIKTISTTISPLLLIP
SMILES,"Ki ([1]; wild type FLAP, HTRF format) [nM]","IC50 [2, 3] [nM]","Ki [1, 4] [nM]","IC50 [2, 5] [nM]",further results
"Nc1cnc(-c2ccc(-c3ccccc3C(=O)N3CCC(O)CC3)cc2F)cn1 [Example 514, 1-{[4′-(5-Aminopyrazin-2-yl)-3′-fluorobiphenyl-2-yl]carbonyl}piperidin-4-ol]",132,148,–,–,–
"Nc1cnc(-c2ccc(-c3ccccc3S(=O)(=O)N[C@H]3CCCNC3=O)cc2F)cn1 [Example 108, (S)-4′-(5-Aminopyrazin-2-yl)-3′-fluoro-N-(2-oxopiperidin-3-yl)-[1,1′-biphenyl]-2-sulfonamide]",–,–,10,49,–
"Nc1ccc(-c2ccc(-c3ccccc3S(=O)(=O)N3CCOCC3)cc2F)cn1 [Example 660, 5-(3-Fluoro-2′-(morpholinosulfonyl)-[1,1′-biphenyl]-4-yl)pyridin-2-amine]",83.3,> 10000,–,–,–
"N#CCCN1CCN(S(=O)(=O)c2ccccc2-c2ccc(-c3cnc(N)cn3)c(F)c2)CC1 [Example 174, 3-(4-{[4′-(5-Aminopyrazin-2-yl)-3′-fluorobiphenyl-2-yl]sulfonyl}piperazin-1-yl)propanenitrile]",–,–,2,23,–
"Nc1cnc(-c2ccc(-c3ccccc3S(=O)(=O)N3CCCC(F)(F)C3)cc2F)cn1 [Example 50, 5-{2′-[(3,3-Difluoropiperidin-1-yl)sulfonyl]-3-fluorobiphenyl-4-yl}pyrazin-2-amine]",–,–,1,15,–
"CC(C)(C)NS(=O)(=O)c1ccccc1-c1ccc(-c2cnc3cc[nH]c3c2)c(F)c1 [Example 425, N-tert-Butyl-3′-fluoro-4′-(1H-pyrrolo[3,2-b]pyridin-6-yl)biphenyl-2-sulfonamide]",2,111,–,–,–
"CC(C)(C)NS(=O)(=O)c1ccccc1-c1ccc(-c2cnc3[nH]c(=O)[nH]c3n2)c(F)c1 [Example 429, N-tert-Butyl-3′-fluoro-4′-(2-oxo-2,3-dihydro-1H-imidazo[4,5-b]pyrazin-5-yl)biphenyl-2-sulfonamide]",13,209,–,–,–
"Nc1cnc(-c2ccc(-c3ccccc3S(=O)(=O)N3CCC(CCO)CC3)cc2F)cn1 [Example 69, 2-(1-{[4′-(5-Aminopyrazin-2-yl)-3′-fluorobiphenyl-2-yl]sulfonyl}piperidin-4-yl)ethanol]",–,–,1,8,–
"CN([C@H]1CCCNC1)S(=O)(=O)c1ccccc1-c1ccc(-c2cnc(N)cn2)c(F)c1 [Example 115, (S)-4′-(5-Aminopyrazin-2-yl)-3′-fluoro-N-methyl-N-piperidin-3-ylbiphenyl-2-sulfonamide]",–,–,4,108,–
"Nc1cnc(-c2ccc(-c3ccccc3S(=O)(=O)N3CC[C@H](CO)C3)cc2F)cn1 [Example 112, (S)-(1-{[4′-(5-Aminopyrazin-2-yl)-3′-fluorobiphenyl-2-yl]sulfonyl}pyrrolidin-3-yl)methanol]",–,–,7,154,–
"Nc1cnc(-c2ccc(-c3ccccc3SCC(=O)N3CCOCC3)cc2F)cn1 [Example 202, 5-{3-Fluoro-2′-[(2-morpholin-4-yl-2-oxoethyl)sulfanyl]biphenyl-4-yl}pyrazin-2-amine]",–,–,72,172,–
"CC(C)N(CCO)S(=O)(=O)c1ccccc1-c1ccc(-c2cnc(N)cn2)c(F)c1 [Example 141, 4′-(5-Aminopyrazin-2-yl)-3′-fluoro-N-(2-hydroxyethyl)-N-(1-methylethyl)biphenyl-2-sulfonamide]",–,–,1,3,–
"CC(C)(C)NS(=O)(=O)c1ccccc1-c1ccc(-c2cnc(N)cn2)c(F)c1 [Example 4, 4′-(5-Aminopyrazin-2-yl)-N-tert-butyl-3′-fluorobiphenyl-2-sulfonamide]",–,–,1,18,–
"CC(C)(C)NS(=O)(=O)c1ccccc1-c1ccc(-c2ccn3cnnc3c2)c(F)c1 [Example 444, N-tert-Butyl-3′-fluoro-4′-[1,2,4]triazolo[4,3-a]pyridin-7-ylbiphenyl-2-sulfonamide]",183,> 10000,–,–,–
"Nc1cnc(-c2ccc(-c3ccccc3S(=O)(=O)N3CCN(CCO)CC3)cc2F)cn1 [Example 59, 2-(4-{[4′-(5-Aminopyrazin-2-yl)-3′-fluorobiphenyl-2-yl]sulfonyl}piperazin-1-yl)ethanol]",–,–,20,1020,–
"C[Si](C)(C)CCOCSc1ccccc1-c1ccc(-c2cnc(N)cn2)c(F)c1 [Example 244, 5-[3-Fluoro-2′-({[2-(trimethylsilyl)ethoxy]methyl}sulfanyl)biphenyl-4-yl]pyrazin-2-amine]",–,–,29,–,IC50 [2]: 211 nM
"CCS(=O)(=O)Nc1ccccc1-c1ccc(-c2cnc3[nH]ccc3n2)c(F)c1 [Example 491, N-[3′-Fluoro-4′-(5H-pyrrolo[2,3-b]pyrazin-2-yl)biphenyl-2-yl]ethanesulfonamide]",15,215,–,–,–
"CCS(=O)(=O)Cc1ccccc1-c1ccc(-c2cnc(N)cn2)c(F)c1 [Example 749, 5-{2′-[(Ethylsulfonyl)methyl]-3-fluorobiphenyl-4-yl}pyrazin-2-amine hydrogen chloride salt]",–,468,–,–,Ki ([1]; read-out: FLAP Binding wild type HTRF Ki): 246 nM
"CC(CO)NS(=O)(=O)c1ccccc1-c1ccc(-c2cnc(N)c(C#N)n2)c(F)c1 (stereo in doubt) [Example 410, 4′-(5-amino-6-cyanopyrazin-2-yl)-3′-fluoro-N-[(1R)-2-hydroxy-1-methylethyl]biphenyl-2-sulfonamide]",4,88,–,–,–
"CS(=O)(=O)c1ccccc1-c1ccc(-c2cnc3[nH]ccc3n2)c(F)c1 [Example 377, 2-[3-Fluoro-2′-(methylsulfonyl)biphenyl-4-yl]-5H-pyrrolo[2,3-b]pyrazine]",–,–,33,979,–
"Nc1cnc(-c2ccc(-c3ccccc3S(=O)(=O)NC3CCCC3)cc2F)cn1 [Example 14, 4′-(5-Aminopyrazin-2-yl)-N-cyclopentyl-3′-fluorobiphenyl-2-sulfonamide]",–,–,3,32,–
"CC(C)(C)NS(=O)(=O)c1ccccc1-c1ccc(-c2cnc(N)nc2)nc1 [Example 693, 2-[6-(2-Aminopyrimidin-5-yl)pyridin-3-yl]-N-tert-butylbenzenesulfonamide]",49.5,103,–,–,–

# Second part, led by results:
"Ki ([1]; wild type FLAP, HTRF format) [nM]","IC50 [2, 3] [nM]","Ki [1, 4] [nM]","IC50 [2, 5] [nM]",SMILES,further results
21,2650,–,–,"CSc1ccccc1-c1ccc(-c2cnc(N)cn2)c(F)c1 [Example 474, 5-[3-Fluoro-2′-(methylsulfanyl)biphenyl-4-yl]pyrazin-2-amine]",–
–,–,45,160,"Nc1ncc(-c2ccc(-c3ccccc3S(=O)(=O)N3CC(O)C3)cc2F)cn1 [Example 265, 1-{[4′-(2-Aminopyrimidin-5-yl)-3′-fluorobiphenyl-2-yl]sulfonyl}azetidin-3-ol trifluoroacetic acid salt]",–
5,34,–,–,"Nc1cnc(-c2ccc(-c3ccccc3Oc3nccc(N)n3)cc2F)cn1 [Example 528, 2-{[4′-(5-Aminopyrazin-2-yl)-3′-fluorobiphenyl-2-yl]oxy}pyrimidin-4-amine]",–
20,328,–,–,"N#Cc1cc(C(F)(F)F)ccc1-c1ccc(-c2cnc(N)cn2)c(F)c1 [Example 563, 4′-(5-Aminopyrazin-2-yl)-3′-fluoro-4-(trifluoromethyl)biphenyl-2-carbonitrile]",–
–,–,5,34,"Nc1ncc(-c2ccc(-c3ccccc3S(=O)(=O)N[C@H]3CCCC[C@H]3O)cc2F)cn1 (racemic) [Example 259, racemic 4′-(2-Aminopyrimidin-5-yl)-3′-fluoro-N-[(cis)-2-hydroxycyclohexyl]biphenyl-2-sulfonamide]",–
74,183,–,–,"Nc1ncc(-c2ccc(-c3ccccc3Oc3ncccn3)cc2F)cn1 [Example 527, 5-[3-Fluoro-2′-(pyrimidin-2-yloxy)biphenyl-4-yl]pyrimidin-2-amine]",–
215,556,–,–,"Nc1ncc(-c2ccc(-c3ccccc3Oc3nccc(C(F)(F)F)n3)cc2F)cn1 [Example 613, 5-(3-Fluoro-2′-{[4-(trifluoromethyl)pyrimidin-2-yl]oxy}biphenyl-4-yl)pyrimidin-2-amine]",–
1.4,14.8,–,–,"Nc1cnc(-c2ccc(-c3ccccc3Oc3ccnc(N)c3)cc2F)cn1 [Example 638, 5-{2′-[(2-Aminopyridin-4-yl)oxy]-3-fluorobiphenyl-4-yl}pyrazin-2-amine]",–
–,–,1,9,"Nc1cnc(-c2ccc(-c3ccccc3Sc3ncncc3N)cc2F)cn1 [Example 217, 4-{[4′-(5-Aminopyrazin-2-yl)-3′-fluorobiphenyl-2-yl]sulfanyl}pyrimidin-5-amine hydrochloride]",–
5,89.4,–,–,"Nc1cnc(-c2ccc(-c3ccc(C(F)(F)F)cc3C=O)cc2F)cn1 [Example 604, 4′-(5-Aminopyrazin-2-yl)-3′-fluoro-4-(trifluoromethyl)biphenyl-2-carbaldehyde]",–
4.9,93.5,–,–,"Cc1nc(N)cc(Oc2ccccc2-c2ccc(-c3cnc(N)cn3)c(F)c2)n1 [Example 623, 6-{[4′-(5-Aminopyrazin-2-yl)-3′-fluorobiphenyl-2-yl]oxy}-2-methylpyrimidin-4-amine]",–
–,–,2,12,"Nc1cnc(-c2ccc(-c3ccccc3Sc3cc(N)ncn3)cc2F)cn1 [Example 215, 6-{[4′-(5-Aminopyrazin-2-yl)-3′-fluorobiphenyl-2-yl]sulfanyl}pyrimidin-4-amine hydrochloride]",–
–,–,50,124,"CC[C@@H](CO)NS(=O)(=O)c1ccccc1-c1ccc(-c2cnc(N)nc2)c(F)c1 [Example 248, 4′-(2-Aminopyrimidin-5-yl)-3′-fluoro-N-[(1S)-1-(hydroxymethyl)propyl]biphenyl-2-sulfonamide]",–
